Experimental data as given in PMC9147171, “Pharmacokinetic/Pharmacodynamic Evaluation of a New Purine-2,6-Dione Derivative in Rodents with Experimental Autoimmune Diseases” (Pharmaceutics, 2022).

Assay: Pharmacokinetic study in mice, single IP dose, serum
Assay type: in vivo, female C57BL/6 mice
Details: female, mouse
Description: Female Lewis rats and female C57BL/6 mice were administered IP with compound 34 dissolved in vehicle at a dose of 20 and 50 mg·kg^−1, respectively. Rats and mice were sacrificed at different time points (n = 3 per time point) following compound administration by decapitation under deep anesthesia. Thereafter, blood samples were harvested and allowed to clot at room temperature for 20 min and serum was separated by centrifugation at 3000 rpm for 10 min (EBA 12 R, Hettich, Germany). The obtained serum samples were stored at −80 °C until analysis.
Concentrations of compound 34 in rat and murine serum were quantified by an HPLC/UV method. To isolate the investigated compound, 100 μL of serum containing compound 34 or the same volume of blank serum spiked with a standard solution of compound 34, 10 μL of 4-(8-((furan-2-ylmethyl)amino)-1,3-dimethyl-2,6-dioxo-2,3,6,7-tetrahydro-1H-purin-7-yl)-N’-(2-hydroxybenzylidene)butanehydrazide methanol solution was used as an internal standard (IS) at a concentration of 80 μg·mL^−1, and 50 μL of 0.2 M NaOH solution was added. Subsequently, 1 mL of ethyl acetate was added to each sample and extraction was performed for 20 min on a VXR Vibrax shaker (IKA, Germany). Then, the samples were centrifuged (10,000× g, 5 min) on EBA 12 R centrifuge (Hettich, Germany) and the organic layers were collected and transferred to clean tubes. Subsequently, the organic layers were evaporated under a mild stream of nitrogen at 37 °C and the residues were dissolved in 100 μL of mobile phase and subjected to an HPLC analysis. The HPLC system (LaChrom Elite, Merck-Hitachi, Germany) consisted of L-2420 UV-VIS detector, an L-2200 autosampler, and an L-2130 pump. EZChrome Elite v. 3.2 (Merck-Hitachi, Germany) software was used for data acquisition and integration. The analysis was performed at ambient temperature on a LiChrospher 100 RP-18 column (250 × 4 mm) and a LiChroCART (4 × 4 mm) pre-column (Merck, Germany). The mobile phase was composed of acetonitrile mixed with 20 mM KH2PO4 water solution (pH = 4.5) at the ratio of 40:60 (v/v). A flow rate was 1 mL·min^−1 and analytical wavelength was set at 302 nm. The retention times of compound 34 and IS were approximately 6.3 min and 10.6 min. The method was validated according to the FDA Bioanalytical Method Validation Guidance for Industry (2018). The calibration curves constructed by plotting the peak area of the studied compound to the peak area of the IS vs. compound concentrations were linear in the tested concentration range, i.e., from 0.05–10 mg·L^−1 (r > 0.998). The limit of quantification was 0.05 mg·L^−1. […] The assay presented acceptable intra- and inter-assay precision and accuracy (i.e., they were within 15% of the CV and 15% of the nominal concentration, respectively) for all quality control concentrations (0.1, 1, and 5 mg·L^−1). The mean extraction efficiencies of the analyzed compound and the IS were above 80%.
Pharmacokinetics of compound 34 were investigated in rats and mice following single IP administration. One- and two-compartment models with first-order absorption and linear elimination were tested, but only the one-compartment model appropriately described the concentration-time courses of compound 34 in both rat and murine serum. […] The equations of the model are as follows:(1) dA/dt=−ka×A;A0=D×F, (2) Vd×dCp/dt=ka×A−CLT×Cp; Cp0=0 where A is the amount of the drug at the absorption site, ka is the first-order rate constant of drug absorption, D is the dose, F is the bioavailability, Vd is the volume of distribution, CLT is the total clearance, and Cp is the serum concentration of compound 34.

An absorption half-life (C57BL/6, serum, 50 mg·kg^−1, IP, solution in DMSO:PEG400:sterile water (10:40:50)) of 4.5 min, a Vd/F (C57BL/6, single IP dose 50 mg·kg^−1, serum, one-compartment model, read-out: Vd/F Apparent volume of distribution, Final Estimate (CV%)) of 21.7 L/kg and an AUC (C57BL/6, single IP dose 50 mg·kg^−1, serum, read-out: AUC Area under the concentration-time curve, Final Estimate (CV%) (converted)) of 818 ng·h/mL were found for `Cn1c(=O)c2c(nc(NCCc3ccccc3)n2CCCC(=O)NN=Cc2ccc(O)c(O)c2O)n(C)c1=O` [Compound 34, 4-(1,3-dimethyl-2,6-dioxo-8-(phenethylamino)-2,3,6,7-tetrahydro-1H-purin-7-yl)-N′-(2,3,4-trihydroxybenzylidene)butanehydrazide] in this work. The CL/F (C57BL/6, single IP dose 50 mg·kg^−1, serum, read-out: CLT/F Apparent clearance, Final Estimate (CV%)) was 1020 mL/min/kg, the Cmax (C57BL/6, single IP dose 50 mg·kg^−1, serum, read-out: Cmax Maximum serum concentration, Final Estimate (CV%)) was 1370 ng/mL and the half-life (C57BL/6, single IP dose 50 mg·kg^−1, serum, read-out: t0.5 Elimination half-life, Final Estimate (CV%)) was 14.7 min.
